How the values were obtained:
Type in all cases: in vivo
[1] = system: redroot pigweed (Amaranthus retroflexus, AMARE); test: Pre-emerge test, greenhouse herbicide activity screening; details: rating scale 0-100, 14 days after application
Summary of the method: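 Herbicidal damage is scored 0 (none) to 100 (complete plant death) two weeks after a simulated field spray. Rates span 15–1000 g ai/ha, delivered in acetone at 187 l/ha. For post-emergence treatments, plants have 2–3 leaves and the spray carries 0.25% v/v non-ionic surfactant.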

[2] = system: common ragweed (Ambrosia artemisizfolia L., AMBEL); test: as above; details: rating scale 0-100, 14 days after application
Summary of the method: (§1)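 Plants grown in 10 cm pots of sandy loam mix received acetone-dissolved compounds through a moving flat-fan nozzle. Doses ranged from 15 to 1000 g ai/ha. Pre-emerge pots were seeded one day earlier, post-emerge pots 8–21 days earlier. Fourteen days on, each pot was graded 0–100 for damage.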

[3] = system: johnsongrass (Sorghum halepense, SORHA); test: as above; details: rating scale 0-100, 14 days after application
Summary of the method: as §1

[4] = system: velvetleaf (Abutilon theophrasti, ABUTH); test: as above; details: rating scale 0-100, 14 days after application
Summary of the method: as §1

[5] = system: green foxtail (Setaria viridis, SETVI); test: as above; details: rating scale 0-100, 14 days after application
Summary of the method: as §1

[6] = system: barnyardgrass (Echinochloa crus-galli, ECHCG); test: as above; details: rating scale 0-100, 14 days after application
Summary of the method: as §1

[7] = system: sicklepod (Cassia obtusifolia, CASOB); test: as above; details: rating scale 0-100, 14 days after application
Summary of the method: as §1

[8] = system: ivyleaf morningglory (Ipomoea hederacea, IPOHE); test: as above; details: rating scale 0-100, 14 days after application
Summary of the method: as §1

[9] = system: lambsquarters (Chenopodium album, CHEAL); test: as above; details: rating scale 0-100, 14 days after application
Summary of the method: as §1

[10] = system: large crabgrass (Digitaria sanguinalis, DIGSA); test: as above; details: rating scale 0-100, 14 days after application
Summary of the method: as §1

[11] = system: field corn (Zea mays L., var. Dekalb 535, CORN); test: Pre-emerge test, crop safety; details: rating scale 0-100, 14 days after application
Summary of the method: (§2)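 Rating: 0–100 visual injury, 14 DAA. Application: acetone, 187 l/ha, 15–1000 g ai/ha, flat-fan track sprayer with nozzle 40–45 cm above soil or canopy. Post-emerge runs used 0.25% v/v surfactant on 2–3 leaf plants.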

[12] = system: upland rice (Oryza sp., var. Tebonnet, RICE); test: Pre-emerge test, crop safety; details: rating scale 0-100, 14 days after application
Summary of the method: as §2

[13] = system: field corn (Zea mays L., var. Dekalb 535, CORN); test: Post-emerge test, crop safety; details: rating scale 0-100 (0 no damage, 100 complete death), 14 days after application
Summary of the method: (§3)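 Each test used a mechanized track sprayer delivering 187 l/ha of acetone solution at 15–1000 g ai/ha. Post-emerge foliage at 2–3 leaves was treated with added 0.25% v/v non-ionic surfactant and bottom-watered only. Injury was assessed on day 14, where 100 means total kill.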

[14] = system: upland rice (Oryza sp., var. Tebonnet, RICE); test: Post-emerge test, crop safety; details: rating scale 0-100 (0 no damage, 100 complete death), 14 days after application
Summary of the method: as §3

[15] = system: redroot pigweed (Amaranthus retroflexus, AMARE); test: Post-emerge test, greenhouse herbicide activity screening; details: rating scale 0-100 (0 no damage, 100 complete death), 14 days after application
Summary of the method: (§4)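 Fourteen days after spraying, crop and weed injury was graded visually from 0, no effect, to 100, every plant dead. Test substances were dissolved in acetone and applied at 15–1000 g ai/ha with a flat-fan nozzle. Application was either pre-emergence, one day after sowing, or post-emergence at the 2–3 leaf stage.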

[16] = system: common ragweed (Ambrosia artemisizfolia L., AMBEL); test: as above; details: rating scale 0-100 (0 no damage, 100 complete death), 14 days after application
Summary of the method: as §4

[17] = system: velvetleaf (Abutilon theophrasti, ABUTH); test: as above; details: rating scale 0-100 (0 no damage, 100 complete death), 14 days after application
Summary of the method: as §4

[18] = system: green foxtail (Setaria viridis, SETVI); test: as above; details: rating scale 0-100 (0 no damage, 100 complete death), 14 days after application
Summary of the method: as §4

[19] = system: barnyardgrass (Echinochloa crus-galli, ECHCG); test: as above; details: rating scale 0-100 (0 no damage, 100 complete death), 14 days after application
Summary of the method: as §4

[20] = system: sicklepod (Cassia obtusifolia, CASOB); test: as above; details: rating scale 0-100 (0 no damage, 100 complete death), 14 days after application
Summary of the method: as §4

[21] = system: ivyleaf morningglory (Ipomoea hederacea, IPOHE); test: as above; details: rating scale 0-100 (0 no damage, 100 complete death), 14 days after application
Summary of the method: as §4

[22] = system: lambsquarters (Chenopodium album, CHEAL); test: as above; details: rating scale 0-100 (0 no damage, 100 complete death), 14 days after application
Summary of the method: as §4

[23] = system: large crabgrass (Digitaria sanguinalis, DIGSA); test: as above; details: rating scale 0-100 (0 no damage, 100 complete death), 14 days after application
Summary of the method: as §4

## CCCCCCOC(=O)C(Cl)Cc1c(OC)c(Cl)cc(F)c1-n1c(=O)cc(C(F)(F)F)n(C)c1=O (single isomer, unassigned) [14-12]
[1]; 63 g ai/ha
  Pre-emerge herbicidal activity, phytotoxicity rating AMARE: 60
[1]; 250 g ai/ha
  Pre-emerge herbicidal activity, phytotoxicity rating AMARE: 100
[2]; 63 g ai/ha
  Pre-emerge herbicidal activity, phytotoxicity rating AMBEL: 0
[2]; 250 g ai/ha
  Pre-emerge herbicidal activity, phytotoxicity rating AMBEL: 0
[3]; 63 g ai/ha
  Pre-emerge herbicidal activity, phytotoxicity rating SORHA: 0
[3]; 250 g ai/ha
  Pre-emerge herbicidal activity, phytotoxicity rating SORHA: 0
[4]; 63 g ai/ha
  Pre-emerge herbicidal activity, phytotoxicity rating ABUTH: 0
[4]; 250 g ai/ha
  Pre-emerge herbicidal activity, phytotoxicity rating ABUTH: 20
[5]; 63 g ai/ha
  Pre-emerge herbicidal activity, phytotoxicity rating SETVI: 0
[5]; 250 g ai/ha
  Pre-emerge herbicidal activity, phytotoxicity rating SETVI: 0
[6]; 63 g ai/ha
  Pre-emerge herbicidal activity, phytotoxicity rating ECHCG: 0
[6]; 250 g ai/ha
  Pre-emerge herbicidal activity, phytotoxicity rating ECHCG: 0
[7]; 63 g ai/ha
  Pre-emerge herbicidal activity, phytotoxicity rating CASOB: 0
[7]; 250 g ai/ha
  Pre-emerge herbicidal activity, phytotoxicity rating CASOB: 0
[8]; 63 g ai/ha
  Pre-emerge herbicidal activity, phytotoxicity rating IPOHE: 0
[8]; 250 g ai/ha
  Pre-emerge herbicidal activity, phytotoxicity rating IPOHE: 0
[9]; 63 g ai/ha
  Pre-emerge herbicidal activity, phytotoxicity rating CHEAL: 50
[9]; 250 g ai/ha
  Pre-emerge herbicidal activity, phytotoxicity rating CHEAL: 60
[10]; 63 g ai/ha
  Pre-emerge herbicidal activity, phytotoxicity rating DIGSA: 0
[10]; 250 g ai/ha
  Pre-emerge herbicidal activity, phytotoxicity rating DIGSA: 100
[11]; 63 g ai/ha
  Pre-emerge phytotoxicity rating, crop damage CORN: 0
[11]; 250 g ai/ha
  Pre-emerge phytotoxicity rating, crop damage CORN: 0
[12]; 63 g ai/ha
  Pre-emerge phytotoxicity rating, crop damage RICE: 0
[12]; 250 g ai/ha
  Pre-emerge phytotoxicity rating, crop damage RICE: 0
[13]; Rate 63 g ai/ha
  Post-emerge phytotoxicity rating CORN (crop damage): 30
[13]; Rate 250 g ai/ha
  Post-emerge phytotoxicity rating CORN (crop damage): 85
[14]; Rate 63 g ai/ha
  Post-emerge phytotoxicity rating RICE (crop damage): 0
[14]; Rate 250 g ai/ha
  Post-emerge phytotoxicity rating RICE (crop damage): 10
[15]; Rate 63 g ai/ha
  Post-emerge Herbicidal Activity, phytotoxicity rating AMARE: 85
[15]; Rate 250 g ai/ha
  Post-emerge Herbicidal Activity, phytotoxicity rating AMARE: 90
[16]; Rate 63 g ai/ha
  Post-emerge Herbicidal Activity, phytotoxicity rating AMBEL: 80
[16]; Rate 250 g ai/ha
  Post-emerge Herbicidal Activity, phytotoxicity rating AMBEL: 80
[17]; Rate 63 g ai/ha
  Post-emerge Herbicidal Activity, phytotoxicity rating ABUTH: 10
[17]; Rate 250 g ai/ha
  Post-emerge Herbicidal Activity, phytotoxicity rating ABUTH: 85
[18]; Rate 63 g ai/ha
  Post-emerge Herbicidal Activity, phytotoxicity rating SETVI: 30
[18]; Rate 250 g ai/ha
  Post-emerge Herbicidal Activity, phytotoxicity rating SETVI: 40
[19]; Rate 63 g ai/ha
  Post-emerge Herbicidal Activity, phytotoxicity rating ECHCG: 98
[19]; Rate 250 g ai/ha
  Post-emerge Herbicidal Activity, phytotoxicity rating ECHCG: 99
[20]; Rate 63 g ai/ha
  Post-emerge Herbicidal Activity, phytotoxicity rating CASOB: 20
[20]; Rate 250 g ai/ha
  Post-emerge Herbicidal Activity, phytotoxicity rating CASOB: 80
[21]; Rate 63 g ai/ha
  Post-emerge Herbicidal Activity, phytotoxicity rating IPOHE: 40
[21]; Rate 250 g ai/ha
  Post-emerge Herbicidal Activity, phytotoxicity rating IPOHE: 70
[22]; Rate 63 g ai/ha
  Post-emerge Herbicidal Activity, phytotoxicity rating CHEAL: 90
[22]; Rate 250 g ai/ha
  Post-emerge Herbicidal Activity, phytotoxicity rating CHEAL: 99
[23]; Rate 63 g ai/ha
  Post-emerge Herbicidal Activity, phytotoxicity rating DIGSA: 50
[23]; Rate 250 g ai/ha
  Post-emerge Herbicidal Activity, phytotoxicity rating DIGSA: 60

— patent publication US6355799B1, “Substituted benzene compounds, process for their preparation, and herbicidal and defoliant compositions containing them” (ISK Americas Incorporated, priority 1997, dated 2002)
